This passage reports IC50 and Inhibition results from patent US20070073056A1, “4-Substituted Pyrazoline Compounds, their Preparation and Use as Medicaments” (LABORATORIOS DEL DR. ESTEVE, S.A., priority 2005, published 2007).

In assay [1] the target is CB1-receptor (UniProt P20272). Description: binding of the pyrazoline compounds to CB1-receptors (Pharmacological Methods, Part I). More on the design: IC50; species or system human or rat. On the procedure:
(§1) I. In-vitro Determination of Affinity to CB1/CB2-Receptors
(§2) The in-vitro determination of the affinity of the inventive 4-substituted pyrazoline compounds to CB1/CB2-Rezeptors is carried out as described in the publication of Ruth A. Ross, Heather C. Brockie et al., “Agonist-inverse agonist characterisation at CB1 and CB2 cannabinoid receptors of L-759633, L759656 and AM630”, British Journal of Pharmacology, 126, 665-672, (1999), whereby the transfected human CB1 and CB2 receptors of Receptor Biology, Inc. are used. The radioligand used for both receptors is [^3H]-CP55940. The respective parts of the description is hereby incorporated by reference and forms part of the present disclosure.
(§3) Rat Cerebellum CB1 Binding
(§4) Binding affinity to CB1 receptor was evaluated according to a modification of the method described by Govaerts et al., Eur J Pharmac Sci 23, 233-243 (2004). The respective parts of the description is hereby incorporated by reference and forms part of the present disclosure.
(§5) Briefly, cerebellum from male wistar rats (250-300 g) were carefully dissected on ice and homogenates were prepared with Potter-Helveheim in a cold 50 mM Tris-HCl solution containing 5 mM MgCl2, 1 mM EDTA and 0.25 M sucrose, pH 7.4. The suspension was centrifuged at […] for 5 minutes. The supernatants were collected and centrifuged 50,000×g for 15 minutes. The resulting pellets were then resuspended in Tris-HCl buffer without sucrose, homogenized and incubated for 15 min at 37° C. in an orbital shaker bath and centrifuged again at 50,000×g for 15 min. Pellets were weighted, resuspended in Tris-HCl buffer without sucrose, homogenized with Ultraturrax at 13,500 rpm for 3×5 seconds and alicuoted in 0.9 ml volumes in Eppendorf tubes. Alicuotes were centrifuged at 20,800×g for 5 minutes, supernatants discarded and pellets were frozen at −80° C. until use. Total protein concentration was determined using the Bio-Rad Lowry method based kit. Competitive binding experiments were performed in presence of 1 nM [^3H]-CP 55,940 in siliconized glass tubes containing 100 μg protein/tube resuspended in 1 ml final volume of 50 mM Tris-HCl, 5 mM MgCl2, 1 mM EDTA, 0.5% (w/v) bovine serum albumin, pH 7.4. Compounds were present at various concentrations and the non specific binding was determined in the presence of 10 μM HU-210. After 1 hour incubation at 30° C., the suspension was rapidly filtered through 0.5% PEI pre-treated GF/B fiber filters on a 96-well harvester and washed 3 times with 3 ml ice-cold binding buffer without bovine serum albumin. Radioactivity on filters was measured with Wallac Winspectral 1414 counter by liquid scintillation in 6 ml Ecoscint H (National Diagnostics, U.K.). Assays were made in triplicates.
(§6) Binding data were analyzed by non-linear regression with the software GraphPad Prism Version 3.03.
(§7) The binding of the pyrazoline compounds of general formula I to CB1-receptors was determined according to the method described in the section Pharmacological Methods, Part I.

Assay [2] concerns the target CB1-receptor (UniProt P20272). The description is as above. More on the design: other: 10^−7 M; other: 10^−8 M; species or system human or rat. On the procedure: as §1, §2, §3, §4, §5, §6, §7
[3] abbreviates: radioligand [3H]-CP55940, read-out: IC50.

Where a name gives a salt, the structure may show the parent alone. Read-outs that look alike come from different tables or passages of the source.

Consider `C[C@H]1C(C(=O)NC2CCCCCC2)=NN(c2ccc(Cl)cc2Cl)[C@H]1c1ccc(F)cc1` (relative stereo) [Example 231, cis-N-cycloheptyl-1-(2,4-dichlorophenyl)-5-(4-fluorophenyl)-4-methyl-4,5-dihydro-1H-pyrazole-3-carboxamide], for which the IC50 – broadly, the concentration at which inhibition is half-maximal – in assay [1] (setting [3]) came to 112 nM. Moreover, the Inhibition in assay [2] (10^−7 M) is listed as 50.5%; in assay [2] (10^−8 M, in %), 23.2.

Take `COc1ccc([C@H]2[C@@H](C)C(C(=O)NN3CCCCCC3)=NN2c2ccc(Cl)cc2Cl)cc1.Cl` (relative stereo) [Example 271, cis-N-(azepan-1-yl)-1-(2,4-dichlorophenyl)-5-(4-methoxyphenyl)-4-methyl-4,5-dihydro-1H-pyrazole-3-carboxamide hydrochloride]: the IC50 in assay [1] (setting [3]) was found to be 61 nM. Also, the Inhibition in assay [2] (10^−7 M) is 73.5%; in assay [2] (10^−8 M, in %) it was 30.6.

Take `C[C@@H]1C(C(=O)NN2CCCCC2)=NN(c2ccc(Cl)cc2Cl)[C@@H]1c1ccc(Cl)cc1` (single isomer, unassigned) [Example 419, (−)-cis-5-(4-chlorophenyl)-1-(2,4-dichlorophenyl)-4-methyl-N-(piperidin-1-yl)-4,5-dihydro-1H-pyrazole-3-carboxamide]: in assay [1] (setting [3]), the IC50 was determined as 54.3 nM. The Inhibition is 57.1% in assay [2] (10^−7 M) and 27.8 in assay [2] (10^−8 M, in %).

As to `C[C@H]1C(C(=O)NN2CCCCCC2)=NN(c2ccc(Cl)cc2Cl)[C@H]1c1ccc(Br)cc1.Cl` (relative stereo) [Example 207, cis-N-(azepan-1-yl)-5-(4-bromophenyl)-1-(2,4-dichlorophenyl)-4-methyl-4,5-dihydro-1H-pyrazole-3-carboxamide hydrochloride], in assay [1] (setting [3]), the IC50 came out at 71 nM. Moreover, the Inhibition in assay [2] (10^−7 M) is given as 73%; in assay [2] (10^−8 M, in %), 48.3.

Turning to `C[C@H]1C(C(=O)NC2CCCCCC2)=NN(c2ccc(Cl)cc2Cl)[C@H]1c1ccc(Cl)cc1` (relative stereo) [Example 123, cis-5-(4-chlorophenyl)-N-cycloheptyl-1-(2,4-dichlorophenyl)-4-methyl-4,5-dihydro-1H-pyrazole-3-carboxamide], the IC50 in assay [1] (setting [3]) amounted to 31.9 nM. Moreover, the Inhibition is listed as 90.8% in assay [2] (10^−7 M) and 39.9 in assay [2] (10^−8 M, in %).

In the case of `C[C@@H]1C(C(=O)NC2CCCCCCC2)=NN(c2ccc(Cl)cc2Cl)[C@@H]1c1ccc(Cl)cc1` (relative stereo) [Example 119, cis-5-(4-chlorophenyl)-N-cyclooctyl-1-(2,4-dichlorophenyl)-4-methyl-4,5-dihydro-1H-pyrazole-3-carboxamide], in assay [1] (setting [3]), the IC50 amounted to 51.4 nM. Further, the Inhibition worked out at 73.7% in assay [2] (10^−7 M) and 19.5 in assay [2] (10^−8 M, in %).

With `CCOC(=O)C1=NN(c2ccc(Cl)cc2Cl)[C@@H](c2ccc(Cl)cc2)[C@@H]1C(F)(F)F` (relative stereo) [Example 416, trans-ethyl 5-(4-chlorophenyl)-1-(2,4-dichlorophenyl)-4-(trifluoromethyl)-4,5-dihydro-1H-pyrazole-3-carboxylate], the IC50 in assay [1] (setting [3]) came out at 182 nM. Also, the Inhibition in assay [2] (10^−7 M) was found to be 93.5%; in assay [2] (10^−8 M, in %), 41.

In the case of `COc1ccc([C@H]2[C@@H](C)C(C(=O)NN3CC4CCCC4C3)=NN2c2ccc(Cl)cc2Cl)cc1.Cl` (relative stereo) [Example 277, cis-1-(2,4-dichlorophenyl)-N-(hexahydrocyclopenta[c]pyrrol-2(1H)-yl)-5-(4-methoxyphenyl)-4-methyl-4,5-dihydro-1H-pyrazole-3-carboxamide hydrochloride], in assay [1] (setting [3]), the IC50 was found to be 20 nM. The Inhibition in assay [2] (10^−7 M) came out at 61.6%; in assay [2] (10^−8 M, in %), 17.9.

`C[C@H]1C(C(=O)NN2CCCCCC2)=NN(c2ccc(Cl)cc2Cl)[C@H]1c1ccc(F)cc1.Cl` (stereo in doubt) [Example 227, cis-N-(azepan-1-yl)-1-(2,4-dichlorophenyl)-5-(4-fluorophenyl)-4-methyl-4,5-dihydro-1H-pyrazole-3-carboxamide hydrochloride]: the IC50 in assay [1] (setting [3]) worked out at 122 nM. Besides, the Inhibition in assay [2] (10^−7 M) is 65.3%; in assay [2] (10^−8 M, in %), 15.3.

With `COc1ccc([C@@H]2[C@H](C)C(C(=O)NN3CCc4ccccc43)=NN2c2ccc(Cl)cc2Cl)cc1` (relative stereo) [Example 279, cis-1-(2,4-dichlorophenyl)-N-(indolin-1-yl)-5-(4-methoxyphenyl)-4-methyl-4,5-dihydro-1H-pyrazole-3-carboxamide], the IC50 in assay [1] (setting [3]) worked out at 19 nM. Further, the Inhibition in assay [2] (10^−7 M) is recorded as 62.4%; in assay [2] (10^−8 M, in %), 14.7.

As to `C[C@H]1C(C(=S)NN2CCCCC2)=NN(c2ccc(Cl)cc2Cl)[C@H]1c1ccc(Cl)cc1` (relative stereo) [Example 379, cis-5-(4-chlorophenyl)-1-(2,4-dichlorophenyl)-4-methyl-N-(piperidin-1-yl)-4,5-dihydro-1H-pyrazole-3-carbothioamide hydrochloride], the IC50 in assay [1] (setting [3]) amounted to 112 nM. The Inhibition in assay [2] (10^−7 M) is 74.5%; in assay [2] (10^−8 M, in %), 27.0.

For the compound `C[C@@H]1C(C(=O)N[C@H]2CCCC[C@@H]2O)=NN(c2ccc(Cl)cc2Cl)[C@@H]1c1ccc(Cl)cc1` (single isomer, unassigned) [Example 129], the IC50 in assay [1] (setting [3]) is 69 nM. In addition, the Inhibition came out at 72.3% in assay [2] (10^−7 M) and 11.6 in assay [2] (10^−8 M, in %).

The compound `COc1ccc([C@H]2[C@@H](C)C(C(=O)NC3CCCCCC3)=NN2c2ccc(Cl)cc2Cl)cc1` (relative stereo) [Example 275, cis-N-cycloheptyl-1-(2,4-dichlorophenyl)-5-(4-methoxyphenyl)-4-methyl-4,5-dihydro-1H-pyrazole-3-carboxamide] returned an IC50 in assay [1] (radioligand [3H]-CP55940) of 66 nM. For the same compound, the Inhibition in assay [2] (10^−7 M) amounted to 69.1%; in assay [2] (10^−8 M, in %), 26.1.

As to `CC1CCN(NC(=O)C2=NN(c3ccc(Cl)cc3Cl)[C@@H](c3ccc(Cl)cc3)[C@H]2C)CC1` (relative stereo) [Example 9, cis-5-(4-Chloro-phenyl)-1-(2,4-dichloro-phenyl)-4-methyl-4,5-dihydro-1H-pyrazole-3-carboxylic acid (4-methyl-piperidin-1-yl)-amide], the IC50 in assay [1] (setting [3]) came out at 77.3 nM.

In the case of `C[C@H]1C(C(=O)NN2CCCCC2)=NN(c2ccc(Cl)cc2Cl)[C@H]1c1cc(Br)cs1` (relative stereo) [Example 75, cis-5-(4-Bromo-thiophen-2-yl)-1-(2,4-dichloro-phenyl)-4-methyl-4,5-dihydro-1H-pyrazole-3-carboxylic acid piperidin-1-ylamide], in assay [1] (setting [3]), the IC50 was found to be 180 nM.

Turning to `C[C@@H]1C(C(=O)NN2CCCCC2)=NN(c2ccc(Cl)cc2Cl)[C@@H]1c1ccc(Cl)cc1` (relative stereo) [Example 434, cis-5-(4-chlorophenyl)-1-(2,4-dichlorophenyl)-4-methyl-N-(piperidin-1-yl)-4,5-dihydro-1H-pyrazole-3-carboxamide], in assay [1] (setting [3]), the IC50 worked out at 89 nM.

`C[C@@H]1C(C(=O)NN2CCCCC2)=NN(c2ccc(Cl)cc2Cl)[C@@H]1c1ccc(Cl)s1` (relative stereo) [Example 427, cis-5-(5-chlorothiophen-2-yl)-1-(2,4-dichlorophenyl)-4-methyl-N-(piperidin-1-yl)-4,5-dihydro-1H-pyrazole-3-carboxamide hydrochloride]: the IC50 in assay [1] (setting [3]) was found to be 160 nM.

In the case of `C[C@H]1C(C(=O)NN2CC3CCCC3C2)=NN(c2ccc(Cl)cc2Cl)[C@H]1c1ccc(Cl)cc1` (relative stereo) [Example 108, cis-5-(4-Chlorophenyl)-1-(2,4-dichlorophenyl)-4-methyl-4,5-dihydro-1H-pyrazole-3-carboxylic acid (hexahydrocyclopenta[c]pyrrol-2-yl)-amide hydrochloride], in assay [1] (setting [3]), the IC50 turned out to be 31.6 nM.
